Reference: patent publication US20210275624A1, “TREATMENTS FOR IMPROVING OR LESSENING IMPAIRMENT OF MITOCHONDRIAL FUNCTION” (priority 2020, published 2021)
Square brackets hold non-standard residues; d marks the D form. Peptide text beside a SMILES is read from it. Cya = N[C@@H](CS(=O)(=O)O)C(=O)O

Assays:
human RPE cells [1] = experiment: Flow cytometry (Annexin V / 7-AAD) cell death and light-microscopy morphology; type: cell-based
Procedure: Human donor eyes from a donor were obtained within 24 hrs. after death from the North Carolina Organ Donor and Eye Bank, Inc. (Winston-Salem, N.C., USA) in accordance with the provisions of the Declaration of Helsinki for research involving human tissue. Cells were grown in Eagle's minimal essential medium (MEM; Invitrogen) with 10% fetal bovine serum (FBS; Thermo Scientific) and with 1× penicillin/streptomycin (Thermo Scientific) at 37° C. in a humidified environment containing 5% CO2.
(§1) Human donor RPE cells were seeded on collagen-coated 96-well plates, 24-well plates with or without coverslips, 6-well plates (Corning-Costar Incorporated, Corning, N.Y., USA). Except for the Seahorse assay, on day 6 after plating, cells were washed twice with serum-free and phenol red-free MEM (SF-MEM), treated with HQ at a various concentrations in the presence or absence of RSG (0.4 mM) in SF-MEM for various times at 37° C. RSG co-treatment refers to the condition in which cells were treated with RSG in the presence of HQ. Control refers to the condition in which cells were not treated.
RPE cells in triplicate wells of a 6-well plate were treated with HQ (150 μM) in the presence or absence of RSG (0.4 mM) for 12 hours. Cell morphology was recorded by light microscopy, and then cells were detached with 1×TrypLE and centrifuged at 300 g for 5 minutes. Cells were re-suspended with 100 μL 1×Annexin V binding buffer, incubated with 5 μL Annexin V for 10 minutes and then 5 μL 7-AAD was added to the Annexin V mixture and incubated for additional 5 minutes. Cell death was analyzed with flow cytometry.

human RPE cells [2] = experiment: F-actin immunofluorescent staining (phalloidin), aggregate quantification; type: cell-based; details: 6 hours
Procedure: Human donor RPE cells were seeded on collagen-coated 96-well plates, 24-well plates with or without coverslips, 6-well plates (Corning-Costar Incorporated, Corning, N.Y., USA). Except for the Seahorse assay, on day 6 after plating, cells were washed twice with serum-free and phenol red-free MEM (SF-MEM), treated with HQ at a various concentrations in the presence or absence of RSG (0.4 mM) in SF-MEM for various times at 37° C. RSG co-treatment refers to the condition in which cells were treated with RSG in the presence of HQ. Control refers to the condition in which cells were not treated. RPE cells in triplicate wells of a 24-well plate containing collagen-coated coverslips were treated for 6 hours with HQ (140 μM) in the presence or absence of RSG (0.4 mM) and then fixed in 4% paraformaldehyde for 12 minutes at room temperature (RT). Cells were permeabilized with 0.5% Triton X-100 for 12 minutes and incubated for 1 hour at RT with phalloidin-TRITC in 0.5% bovine serum albumin/0.1% Triton X-100/PBS. The percentage of F-actin aggregates was determined by a masked observer. […] For data analysis, segmented images were converted to eight-bit, binary images and F-actin aggregates were quantified using the particle analyzer function (0-infinity size and 0-1 circularity) in Fiji.

human RPE cells [3] = experiment: WST assay (mitochondrial dehydrogenase activity / cell viability); type: cell-based; details: 2.5 hours
Procedure: as §1, with “treated. RPE cells in triplicate wells of a 96-well plate were treated with HQ (150 μM) for 2.5 hours in the presence or absence of RSG (0.4 mM). The medium was removed and cells were incubated with WST-1 solution for 30 minutes at 37° C. A colorimetric assay was performed based on the cleavage of the tetrazolium salt WST-1 by mitochondrial dehydrogenases in viable cells. The plate was read on a spectrophotometer at 440 nm with a reference wavelength at 690 nm.” for “treated.”

heme oxygenase-1 (HO-1) = experiment: Western blot of HO-1; type: cell-based, human; details: for HO-1 protein level (Western blot): 8 hours
Procedure: RPE cells in triplicate wells of a 6-well plate were treated with HQ (170 μM) in the presence or absence of RSG (0.4 mM) for 8 hours. Total protein were extracted with RIPA buffer supplemented with protease inhibitors and phosphatase inhibitors, quantified with Bradford protein assay, and subjected to SDS-PAGE and Western blot as we have previously described.^21

human RPE cells [4] = experiment: Determination of Δψm (JC-1 dye); type: cell-based
Procedure: as §1, with “treated. RPE cells in triplicate wells of 96-well black plates with clear bottoms were washed with SF-MEM, loaded with 10 μM JC-1 dye in SF-MEM for 30 minutes at 37° C. and then washed twice. Cells were then treated with HQ (160 μM) with or without RSG (0.4 mM). A fluorescence plate reader was used to measure the fluorescence at various times to quantify green JC-1 monomer (490-nm excitation, 522-nm emission) and red JC-1 aggregates (535-nm excitation, 590-nm emission).” for “treated.”

Compound | cell morphology (human RPE cells [1]; HQ 150 μM) | cell death (necrosis, apoptosis) (human RPE cells [1]; HQ alone 150 μM, 12 hours) | number of F-actin aggregates (human RPE cells [2]; HQ 140 μM, vs control) | cell viability (WST-1) (human RPE cells [3]; HQ 150 μM) | HO-1 protein level (Western blot) (heme oxygenase-1 (HO-1); HQ 170 μM) | Δψm (human RPE cells [4]; HQ 160 μM vs control) | cell morphology (human RPE cells [1]; RSG 0.4 mM co-treatment with HQ 150 μM) | HQ-induced necrosis and apoptosis (cell death) (human RPE cells [1]; RSG 0.4 mM co-treatment with HQ 150 μM, 12 hours) | number of live and dead cells (human RPE cells [1]; RSG alone 0.4 mM, 12 hours, vs control) | F-actin aggregates (human RPE cells [2]; RSG 0.4 mM co-treatment with HQ 140 μM) | cell viability (WST-1, mitochondrial dehydrogenase activity) (human RPE cells [3]; RSG 0.4 mM co-treatment with HQ 150 μM, vs HQ alone) | HO-1 protein level (Western blot) (heme oxygenase-1 (HO-1); RSG 0.4 mM co-treatment with HQ 170 μM) | cellular stress and HO-1 activation (heme oxygenase-1 (HO-1); RSG alone) | Δψm (mitochondrial membrane potential) (human RPE cells [4]; RSG 0.4 mM co-treatment with HQ 160 μM)
Oc1ccc(O)cc1 [HQ, hydroquinone, reference compound] | caused cells to shrivel/detach | induced primarily necrotic cell death and much less apoptotic cell death | significantly increased the number of F-actin aggregates | significantly decreased cell viability | significantly up-regulated | significantly decreased | – | – | – | – | – | – | – | –
C[C@@H](O)[C@H](NC(=O)[C@H](CS(=O)(=O)O)NC(=O)CNC(=O)[C@H](CCCNC(=N)N)NC(=O)CN)C(=O)N1CCC[C@H]1C(=O)O [Risuteganib, Glycyl-L-arginylglycyl-3-sulfo-L-alanyl-L-threonyl-L-proline] (H-GRG[Cya]TP-OH) | – | – | – | – | – | – | improved HQ-induced morphological changes | significantly protected cells from HQ-induced necrosis and apoptosis | little effect | significantly inhibited the production of HQ-induced aggregates | significantly increased cell viability | further up-regulated | did not induce observable cellular stress and HO-1 activation | significantly improved HQ-mediated reduction in Δψm
